Data set [1] concerns the target Recombinant human JAK3 catalytic domain (Homo sapiens (Human), UniProt P52333). In words: JAK3 inhibition assay. Particulars: semi-quantitative score. Type of data set: biochemical. The procedure: Plates were washed 6 times with 300 μL per well of a 75 mM phosphoric acid solution and the bottom of the plates was sealed. 40 μL/well of Microscint-20 was added, the top of the plates was sealed and readout was performed using the Topcount (Perkin Elmer). Kinase activity was calculated by subtracting counts per minute (cpm) obtained in the presence of a positive control inhibitor (10 μM staurosporine) from cpm obtained in the presence of vehicle. The ability of a test compound to inhibit this activity was determined as: Percentage inhibition=((cpm determined for sample with test compound present−cpm determined for sample with positive control inhibitor) divided by (cpm determined in the presence of vehicle−cpm determined for sample with positive control inhibitor))*100%.
Dose dilution series were prepared for the compounds enabling the testing of dose-response effects in the JAK3 assay and the calculation of the IC50 for each compound.

For data set [2], the target named is Recombinant human JAK1 catalytic domain (Homo sapiens (Human), UniProt P23458). In words: JAK1 inhibition assay. Type of data set: biochemical. To be noted: semi-quantitative score. A digest of the protocol: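 IC50 values come from dose-response series, with each point expressed as percent inhibition of cpm. Vehicle sets full activity and 10 μM staurosporine sets background. Incorporated radioactivity counted by scintillation after washing with 75 mM phosphoric acid.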
Chain of Recombinant human JAK1 catalytic domain (P23458 850-1154): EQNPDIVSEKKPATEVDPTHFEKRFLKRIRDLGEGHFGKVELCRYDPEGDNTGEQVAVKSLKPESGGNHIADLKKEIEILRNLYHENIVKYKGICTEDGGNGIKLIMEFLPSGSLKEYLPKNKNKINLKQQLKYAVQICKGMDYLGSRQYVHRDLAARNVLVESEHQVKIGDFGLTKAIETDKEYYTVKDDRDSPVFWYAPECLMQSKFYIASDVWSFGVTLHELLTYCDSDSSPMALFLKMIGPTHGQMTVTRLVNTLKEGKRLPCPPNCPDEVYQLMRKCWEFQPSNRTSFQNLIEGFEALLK

Data set [3] addresses Recombinant human JAK2 catalytic domain (Homo sapiens (Human), UniProt O60674). In words: JAK2 inhibition assay. Particulars: semi-quantitative score. Type of data set: biochemical. The method in brief:
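Activity was taken as vehicle cpm minus cpm with 10 μM staurosporine, and inhibition was expressed on that scale. Incubation was 90 min at 30 °C, followed by acid quench, phosphoric acid washes and Microscint counting. Compounds were tested as dose series to obtain IC50.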

The subject of a further data set is MMP13 in SW1353 cells. In words: OSM/IL-1β signaling assay (MMP13 levels in SW1353 cells).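 Note: secreted MMP13 captured by antibody, activated with APMA and its activity read by fluorescence, inhibition scaled between vehicle-treated triggered wells (0%) and untriggered wells (100%).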 The data set is classed as cell-based. Particulars: Homo sapiens; SW1353 cells, OSM and IL-1β triggered, MMP13 levels 48 hours after triggering; read-out: MMP13 EC50.
Data set [4] relates to JAK-STAT signalling in HeLa cells. Briefly: JAK-STAT signalling assay (OSM-triggered pSTAT1(2)-luciferase reporter in HeLa cells). Type of data set: cell-based. To be noted: Homo sapiens; HeLa cells, OSM-triggered pSTAT1(2)-luciferase reporter; read-out: STAT signalling EC50. A digest of the protocol:
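Read-out is oncostatin M–driven pSTAT1(2)-luciferase activity, corrected by co-transfected LacZ β-galactosidase, in transiently transfected HeLa cells cultured overnight at 37 °C, 10% CO2. Inhibition percentages against positive and negative controls were plotted across doses to derive EC50.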

A short description of data set [5]: Microsomal stability, human liver microsomes. To be noted: percentage of compound remaining after 60 minutes, 3 μM compound. The data set is classed as in vitro ADME. A digest of the protocol:
(§1)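 Percent parent remaining after 60 min was determined by LCMS against a time-zero sample quenched before microsome addition. Incubations ran at 37°C with liver microsomes and a G6PDH-based NADPH-regenerating cofactor mix. Quench was MeOH or ACN (1:1).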

The nature of data set [6]: Microsomal stability, rat liver microsomes. The data set is classed as in vitro ADME. To be noted: percentage of compound remaining after 60 minutes, 3 μM compound. The method in brief:
as §1

Chain of Recombinant human JAK3 catalytic domain (P52333 781-1124): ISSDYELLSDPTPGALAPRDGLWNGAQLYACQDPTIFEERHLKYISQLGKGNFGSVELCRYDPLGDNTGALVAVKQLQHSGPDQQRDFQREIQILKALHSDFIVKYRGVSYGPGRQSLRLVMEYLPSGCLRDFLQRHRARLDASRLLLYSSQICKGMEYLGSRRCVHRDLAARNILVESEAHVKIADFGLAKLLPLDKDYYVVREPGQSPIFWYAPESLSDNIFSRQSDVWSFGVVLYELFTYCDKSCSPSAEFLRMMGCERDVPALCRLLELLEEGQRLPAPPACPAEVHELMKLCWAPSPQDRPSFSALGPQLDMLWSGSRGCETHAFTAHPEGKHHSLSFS
Chain of Recombinant human JAK2 catalytic domain (O60674 808-1132): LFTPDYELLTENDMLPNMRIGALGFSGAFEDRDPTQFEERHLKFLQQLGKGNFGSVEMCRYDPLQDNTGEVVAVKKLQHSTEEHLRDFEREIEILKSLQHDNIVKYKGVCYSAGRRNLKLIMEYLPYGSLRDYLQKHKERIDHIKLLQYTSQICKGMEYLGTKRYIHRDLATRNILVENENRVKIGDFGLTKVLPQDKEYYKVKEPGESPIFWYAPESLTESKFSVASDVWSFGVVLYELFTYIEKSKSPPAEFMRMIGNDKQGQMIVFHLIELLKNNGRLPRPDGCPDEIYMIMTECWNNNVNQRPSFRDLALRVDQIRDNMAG
Experimental for MMP13 in SW1353 cells: The cells were seeded in 96 well plates at 15,000 cells/well in a volume of 120 μL DMEM (Invitrogen) containing 10% (v/v) FBS and 1% penicillin/streptomycin (InVitrogen) incubated at 37° C. […] MMP13 activity was measured using an antibody capture activity assay. […] Next the wells were washed twice with PBS+0.05% Tween followed by MMP13 activation by addition of 35 μL of a 1.5 mM 4-Aminophenylmercuric acetate (APMA) (Sigma, A9563) solution and incubation at 37° C. for 1 hour. […] Percentage inhibition=((fluorescence determined in the presence of vehicle−fluorescence determined for sample with test compound present) divided by (fluorescence determined in the presence of vehicle−fluorescence determined for sample without trigger))*100%.

Turning to `O=C(Nc1nc2cccc(-c3ccc(N4CCCCC4)nc3)n2n1)C1CC1` [Compound 3, N-(5-(6-(piperidin-1-yl)pyridin-3-yl)-[1,2,4]triazolo[1,5-a]pyridin-2-yl)cyclopropanecarboxamide], the IC50 was greater than 1 µM in data set [1], 0.101 to 0.5 µM in data set [2] and greater than 1 µM in data set [3].

Turning to `O=C(c1ccccc1)c1ccc(-c2cccc3nc(NC(=O)C4CC4)nn23)cc1` [Compound 10, N-(5-(4-benzoylphenyl)-[1,2,4]triazolo[1,5-a]pyridin-2-yl)cyclopropanecarboxamide], the EC50 (in the data set with MMP13 in SW1353 cells; in data set [4]) was greater than 1 µM each time. Moreover, the IC50 in data set [1] is greater than 1 µM; in data set [2], less than 0.1 µM; in data set [3], 0.101 to 0.5 µM. Also, the “Microsomal Stability Human (%)” value in data set [5] is listed as “**** (**** 76-100)”. Besides, in data set [6], the “Microsomal Stability Rat (%)” value is recorded as “** (** 26-50)”.

Regarding `O=C(Nc1nc2cccc(-c3ccc(C(=O)N4CCCC4)cc3)n2n1)C1CC1` [Compound 19, N-(5-(4-(pyrrolidine-1-carbonyl)phenyl)-[1,2,4]triazolo[1,5-a]pyridin-2-yl)cyclopropanecarboxamide], the EC50 (in the data set with MMP13 in SW1353 cells; in data set [4]) was greater than 1 µM in each case. Also, the values for the IC50 in data set [1], in data set [2] and in data set [3] were greater than 1 µM, less than 0.1 µM and 0.101 to 0.5 µM, respectively. Further, the “Microsomal Stability Human (%)” value in data set [5] is recorded as “**** (**** 76-100)”. In addition, in data set [6], the “Microsomal Stability Rat (%)” value is listed as “*** (*** 51-75)”.

Take `CN(C(=O)c1ccc(-c2cccc3nc(NC(=O)C4CC4)nn23)cc1)c1ccccc1` [Compound 30, 4-(2-(cyclopropanecarboxamido)-[1,2.4]triazolo[1,5-a]pyridin-5-yl)-N-methyl-N-phenylbenzamide]: the EC50 with MMP13 in SW1353 cells is greater than 1 µM; in data set [4] it was 0.501 to 1 µM. Moreover, the IC50 in data set [1] is greater than 1 µM; in data set [2], less than 0.1 µM; in data set [3], less than 0.1 µM. In data set [5], the “Microsomal Stability Human (%)” value is “* (* 0-25)”. Further, in data set [6], the “Microsomal Stability Rat (%)” value was “* (* 0-25)”.

Turning to `CN1CCN(C(=O)c2ccc(-c3cccc4nc(NC(=O)C5CC5)nn34)cc2)CC1` [Compound 71, N-(5-(4-(4-methylpiperazine-1-carbonyl)phenyl)-[1,2,4]triazolo[1,5-a]pyridin-2-yl)cyclopropanecarboxamide], the EC50 (in the data set on MMP13 in SW1353 cells; in data set [4]) was greater than 1 µM in each case. Also, the IC50 in data set [1] is greater than 1 µM; in data set [2] it was less than 0.1 µM. Also, the “Microsomal Stability Human (%)” value in data set [5] is listed as “* (* 0-25)”. Further, the “Microsomal Stability Rat (%)” value in data set [6] was “**** (**** 76-100)”.

Consider `O=C(Nc1nc2cccc(-c3ccc(NS(=O)(=O)Cc4ccccc4)cc3)n2n1)C1CC1` [Compound 77, N-(5-(4-(phenylmethylsulfonamido)phenyl)-[1,2,4]triazolo[1,5-a]pyridin-2-yl)cyclopropanecarboxamide], for which the EC50 in the data set with MMP13 in SW1353 cells was 0.001 to 0.5 µM; in data set [4], greater than 1 µM. Moreover, the IC50 is greater than 1 µM in data set [1], less than 0.1 µM in data set [2] and 0.101 to 0.5 µM in data set [3]. For the same compound, in data set [5], the “Microsomal Stability Human (%)” value is reported as “** (** 26-50)”. For the same compound, in data set [6], the “Microsomal Stability Rat (%)” value is “** (** 26-50)”.

In the case of `CC(=O)Nc1ccc(COc2ccc(-c3cccc4nc(NC(=O)C5CC5)nn34)cc2)cc1` [Compound 92, N-(5-(4-(4-acetamidobenzyloxy)phenyl)-[1,2,4]triazolo[1,5-a]pyridin-2-yl)cyclopropanecarboxamide], in the data set on MMP13 in SW1353 cells, the EC50 was greater than 1 µM. The IC50 is 0.501 to 1 µM in data set [1], less than 0.1 µM in data set [2] and 0.101 to 0.5 µM in data set [3]. Moreover, the “Microsomal Stability Human (%)” value in data set [5] is listed as “** (** 26-50)”. Besides, the “Microsomal Stability Rat (%)” value in data set [6] is listed as “* (* 0-25)”.

Consider `CC(Oc1ccc(-c2cccc3nc(NC(=O)C4CC4)nn23)cc1)c1ccccn1` (stereo not shown) [Compound 189, N-(5-(4-(1-(pyridin-2-yl)ethoxy)phenyl)-[1,2,4]triazolo[1,5-a]pyridin-2-yl)cyclopropanecarboxamide], for which the EC50 in the data set on MMP13 in SW1353 cells was greater than 1 µM; in data set [4], 0.101 to 0.5 µM. The IC50 in data set [1] is 0.501 to 1 µM; in data set [2], less than 0.1 µM. The “Microsomal Stability Human (%)” value in data set [5] is on record as “** (** 26-50)”. Besides, the “Microsomal Stability Rat (%)” value in data set [6] was “** (** 26-50)”.
